Literature values as cited in patent US20230321091A1, “SUBSTITUTED PYRIDAZINONES FOR USE IN THE TREATMENT OF NEUROMUSCULAR DISEASES” (Edgewise Therapeutics, Inc., priority 2020, published 2023).

Test system: embryos from zebrafish model of DMD

In the case of `Cc1ccc(S(=O)(=O)NCc2ccccc2)cc1` [BTS, N-benzyl-p-tolyl-sulfonamide], the “protection of muscles from pathological muscle derangement” value is listed as “protect muscles from pathological muscle derangement”.
